Assay results as given in ChEMBL document CHEMBL1201862, “PubChem BioAssay data set” (2004).
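Five concentrations, 48 hours, 96-well plates. GI50 marks 50% less growth.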 Calls of active or inactive are those of the source. Cut-off read from the data, not from the text of the source: active = GI50 up to about 1.1 µM and inactive = higher.

Experiments:
Experiment in all cases: inhibition of tumour cell growth, NCI panel, 48 h
SK-OV-3 = system: SK-OV-3
Malme-3M = system: Malme-3M
RPMI-8226 = system: RPMI-8226
UACC-62 = system: UACC-62
NCI-H23 = system: NCI-H23
PC-3 = system: PC-3
OVCAR-8 = system: OVCAR-8
TK-10 = system: TK-10
HOP-62 = system: HOP-62
NCI-H522 = system: NCI-H522
SK-MEL-28 = system: SK-MEL-28
K562 = system: K562
SF-295 = system: SF-295
HOP-92 = system: HOP-92
NCI-H460 = system: NCI-H460
SF-268 = system: SF-268
HL-60 = system: HL-60

Measured: GI50

C=CCNS(=O)(=O)c1ncnc2[nH]cnc12
inactive: SK-OV-3 > 100 µM | Malme-3M > 100 µM | RPMI-8226 11.8 µM | UACC-62 > 100 µM | NCI-H23 > 100 µM | PC-3 > 100 µM | OVCAR-8 > 100 µM | TK-10 > 100 µM | HOP-62 > 100 µM | NCI-H522 > 100 µM | SK-MEL-28 > 100 µM | K562 10.5 µM | SF-295 > 100 µM | HOP-92 5.75 µM

CCOC(=O)Nc1cc(NC(/C=N/NC(C)=O)C(=O)OCC)c(OC)cc1NC(C)=O (stereo not given)
inactive: SK-OV-3 > 100 µM | Malme-3M > 100 µM | RPMI-8226 > 100 µM | UACC-62 > 100 µM | NCI-H23 > 100 µM | PC-3 > 100 µM | OVCAR-8 > 100 µM | TK-10 > 100 µM | HOP-62 > 100 µM | NCI-H460 > 100 µM | SF-268 > 100 µM | SK-MEL-28 > 100 µM | K562 > 100 µM | SF-295 > 100 µM | HOP-92 > 100 µM

COC(=O)c1nsc(OC)c1Cl
inactive: SK-OV-3 > 100 µM | Malme-3M > 100 µM | RPMI-8226 > 100 µM | UACC-62 > 100 µM | NCI-H23 > 100 µM | PC-3 > 100 µM | OVCAR-8 > 100 µM | TK-10 > 100 µM | HOP-62 > 100 µM | SF-268 > 100 µM | SK-MEL-28 > 100 µM | K562 > 100 µM | SF-295 > 100 µM | HL-60 > 100 µM

CCC1OC2C(CC=C(C)C)=C3OC(C)(O)C(C)(CC)C(=O)C3=C3OC(=O)C=C1C32 (stereo not given)
inactive: SK-OV-3 > 100 µM | RPMI-8226 19.2 µM | UACC-62 20.7 µM | NCI-H23 28.4 µM | PC-3 38.8 µM | TK-10 46.5 µM | NCI-H460 17.4 µM | SF-268 38.6 µM | SK-MEL-28 27.6 µM | K562 26 µM | SF-295 47 µM | HOP-92 21.7 µM

COc1cc(C2OC(N)=C(C#N)C3=C2C(C)CCC3)cc(OC)c1OC (stereo not given)
inactive: SK-OV-3 80.7 µM | Malme-3M 39.9 µM | RPMI-8226 > 100 µM | UACC-62 > 100 µM | NCI-H23 > 100 µM | PC-3 81.5 µM | OVCAR-8 63 µM | TK-10 > 100 µM | HOP-62 12.7 µM | SF-268 > 100 µM | SK-MEL-28 > 100 µM | K562 > 100 µM | SF-295 28.9 µM | HL-60 > 100 µM

Cc1nc(-[n+]2nc(-c3ccncc3)nn2-c2ccccc2)sc1C
inactive: SK-OV-3 21.2 µM | Malme-3M > 100 µM | RPMI-8226 68.1 µM | UACC-62 8.36 µM | NCI-H23 57.9 µM | PC-3 15.5 µM | OVCAR-8 42.9 µM | TK-10 21.8 µM | HOP-62 7.96 µM | SF-268 21.4 µM | NCI-H522 3.15 µM | SK-MEL-28 34.5 µM | K562 4.91 µM | SF-295 9.93 µM | HL-60 57.5 µM

CCCc1c(OC)c(=O)c2c(OC)cc(OC)c3c4c(OC)cc(OC)c5c(=O)c(OC)c(CCC)c(c1c23)c54
inactive: SK-OV-3 15.5 µM | UACC-62 11.9 µM | NCI-H23 14.9 µM | OVCAR-8 17.5 µM | TK-10 21 µM | HOP-62 18 µM | NCI-H460 13.7 µM | SF-268 16.1 µM | SK-MEL-28 13.4 µM | SF-295 17.8 µM | HL-60 2.77 µM | HOP-92 10.9 µM

Oc1ccc(-c2nn3c(CCCCCCCCc4nnc5sc(-c6ccc(O)cc6)nn45)nnc3s2)cc1
inactive: SK-OV-3 > 100 µM | Malme-3M > 100 µM | RPMI-8226 > 100 µM | UACC-62 > 100 µM | NCI-H23 > 100 µM | PC-3 > 100 µM | OVCAR-8 > 100 µM | TK-10 > 100 µM | HOP-62 > 100 µM | NCI-H460 > 100 µM | SF-268 > 100 µM | NCI-H522 > 100 µM | SK-MEL-28 > 100 µM | K562 > 100 µM | SF-295 > 100 µM | HOP-92 > 100 µM

Cc1cccc(N/C(=C(/C(Cl)=C(Cl)Cl)[N+](=O)[O-])n2nnc3ccccc32)c1
inactive: SK-OV-3 21.3 µM | Malme-3M 14.9 µM | RPMI-8226 13.7 µM | UACC-62 15.5 µM | NCI-H23 16.8 µM | PC-3 16.6 µM | OVCAR-8 16.5 µM | HOP-62 18 µM | NCI-H460 20.7 µM | SF-268 15.9 µM | SK-MEL-28 14.9 µM | K562 35 µM | SF-295 16.9 µM

CCN(CC)/C(SCc1ccccc1)=C(\C(Cl)=C(Cl)Cl)[N+](=O)[O-]
inactive: SK-OV-3 39.6 µM | Malme-3M 10.2 µM | RPMI-8226 14.9 µM | UACC-62 3.87 µM | NCI-H23 17.8 µM | PC-3 21.6 µM | OVCAR-8 16.9 µM | TK-10 19.2 µM | HOP-62 22 µM | NCI-H460 22.3 µM | SF-268 18.4 µM | NCI-H522 16.6 µM | SK-MEL-28 15.9 µM | K562 25.8 µM | SF-295 36.1 µM | HL-60 15.8 µM

CCOC(=O)c1c(O)cc(=O)[nH]c1N1CCOCC1
inactive: SK-OV-3 > 100 µM | RPMI-8226 > 100 µM | UACC-62 > 100 µM | NCI-H23 > 100 µM | PC-3 > 100 µM | OVCAR-8 > 100 µM | HOP-62 > 100 µM | NCI-H460 > 100 µM | SK-MEL-28 > 100 µM | K562 > 100 µM | SF-295 > 100 µM | HOP-92 > 100 µM

CC1(C)C2CCC1(C)C(N/C(Sc1ccccc1)=C(/C(Cl)=C(Cl)Cl)[N+](=O)[O-])C2 (stereo not given)
inactive: SK-OV-3 13.8 µM | Malme-3M 15.1 µM | UACC-62 9.14 µM | NCI-H23 12.3 µM | PC-3 9.06 µM | OVCAR-8 13.8 µM | HOP-62 18.5 µM | NCI-H460 15.3 µM | SF-268 12 µM | SK-MEL-28 12.4 µM | K562 6.35 µM | SF-295 13.1 µM

C#CCN(Cc1ccc2[nH]c(N)nc(=O)c2c1)c1ccc(C(=O)NC(CCC(=O)O)C(=O)O)cc1 (stereo not given)
inactive: SK-OV-3 > 100 µM | Malme-3M 47.5 µM | RPMI-8226 7.46 µM | NCI-H23 > 100 µM | PC-3 > 100 µM | OVCAR-8 4.4 µM | TK-10 10.8 µM | HOP-62 23.4 µM | NCI-H460 6.95 µM | SF-268 17.5 µM | SK-MEL-28 > 100 µM | SF-295 34 µM | HL-60 > 100 µM | HOP-92 28.7 µM

COc1ccc(-c2cc(=O)c3c(OC)c(OC)c(OC)c(OC)c3o2)cc1 [TANGERETIN]
inactive: SK-OV-3 99.8 µM | Malme-3M 84.1 µM | RPMI-8226 67 µM | UACC-62 22.4 µM | NCI-H23 43.3 µM | OVCAR-8 41.2 µM | TK-10 58.2 µM | HOP-62 82.6 µM | NCI-H460 56.2 µM | SF-268 > 100 µM | NCI-H522 15.3 µM | SK-MEL-28 > 100 µM | K562 37.8 µM | SF-295 55.3 µM | HL-60 34.4 µM | HOP-92 20.2 µM
